Data reported in patent publication US7989457B2 (Eli Lilly and Company, priority 2004, dated 2011).

Biological target: cloned human glucagon receptor (Homo sapiens, UniProt P47871)
Assay: Glucagon Receptor (hGlucR) Binding Assay
Procedure: This plasmid DNA was transfected into 293 HEK cells and selec ted with 200 ug/mL Hygromycin.
Crude plasma membranes are prepared using cells from suspension culture. The cells are lysed on ice in hypotonic buffer containing 25 mM Tris HCL, pH 7.5, 1 mM MgCl2, DNAsel, 20 u/mL, and Roche Complete Inhibitors-without EDTA. The cell suspension is homogenized with a glass dounce homogenizer using a Teflon pestle for 25 strokes. The homogenate is centrifuged at 4° C. at 1800×g for 15 mins. The supernate is collected and the pellet is resuspended in hypotonic buffer and rehomogenized. The mixture is centrifuged at 1800×g for 15 mins. The second supernate is combined with the first supernate. The combined supernates are recentrifuged at 1800×g for 15 mins to clarify. The clarified supernate is transferred to high speed tubes and centrifuged at 25000×g for 30 minutes at 4° C. The membrane pellet is resuspended in homogenization buffer and stored as frozen aliquots at −80° C. freezer until needed.
The specific activity is 2200 Ci/mmol.
The binding buffer contains 25 mM Hepes, pH 7.4, 2.5 mM CaCl2, 1 mM MgCl2, 0.1% fatty acid free BSA, (ICN), 0.003% tween-20, and Roche Complete Inhibitors without EDTA. […] Test compounds are dissolved in DMSO and serially diluted in DMSO. […] Plates are read with a MicroBeta after 14 hours of settling time at room temp. […]

Chain of cloned human glucagon receptor (P47871 26-477): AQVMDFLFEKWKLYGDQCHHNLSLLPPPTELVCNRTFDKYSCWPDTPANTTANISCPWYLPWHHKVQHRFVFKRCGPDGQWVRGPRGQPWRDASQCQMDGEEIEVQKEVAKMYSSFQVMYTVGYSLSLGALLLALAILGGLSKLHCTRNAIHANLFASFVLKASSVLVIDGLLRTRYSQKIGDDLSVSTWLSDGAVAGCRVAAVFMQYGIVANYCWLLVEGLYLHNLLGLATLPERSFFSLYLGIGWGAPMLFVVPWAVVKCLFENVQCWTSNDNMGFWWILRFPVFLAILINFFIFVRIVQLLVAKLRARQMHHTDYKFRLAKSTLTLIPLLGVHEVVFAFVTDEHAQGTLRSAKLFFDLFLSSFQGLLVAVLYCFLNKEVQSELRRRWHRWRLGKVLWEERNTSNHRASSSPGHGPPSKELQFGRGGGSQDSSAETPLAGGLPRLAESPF

`CCC(COc1ccc(C(=O)NCCC(=O)O)cc1)c1ccc(-c2ccc(C(F)(F)F)cc2)cc1` (racemic) gave a Ki of 951 nM.

Work on `CC(Oc1ccc(C(=O)NCCC(=O)O)cc1)c1ccc(-c2ccc(C(F)(F)F)cc2)nc1` (racemic) yielded a Ki of 801 nM.
